Like-named read-outs stand apart in the source and are kept apart here.
Key:
[1] = test system: non-senescent WI-38 cells (NC); test: Cell viability (PI flow cytometry), LD50 in non-senescent WI-38 cells; format: cell-based, human; conditions: for CC50: WI-38 fibroblasts, non-senescent, LD50 by Probit Analysis, read-out: LD50 (μM) for non-senescent cells (NC)
Description: Mouse embryonic fibroblasts (MEF) were isolated from mouse embryos as described^1. All cells were cultured in a complete medium (CM) (Dulbecco's Modified Eagle Medium supplemented with 10% fetal bovine serum [FBS], 100 U/ml penicillin, and 100 μg/ml streptomycin [all from Atlanta Biologicals, Norcross, Ga., and USA]) in a humidified incubator at 37° C. and 5% CO2. Low passages of WI-38 cells (<25), IMR-90 (<25), REC cells (<25) and MEF (<3) were used as non-senescent controls or for induction of senescence to avoid replicative senescence. […] To induce senescence by expression of oncogenic Ras (Ras^V12), WI-38 cells were infected with the retroviruses pBabe-H-Ras or pBabe-puro (control) (Addgene, Cambridge, Mass., UAS)^2, 3. […] Senescent cells were maintained in culture for a few days, changing the culture medium every 3 days until use. For in vitro cell culture experiments, we usually repeated the experiments for at least three times to ensure the reproducibility of the data. In addition, the repeats of the experiments for three times will allow us to obtain 3 independent observations for statistical analysis.
Flow cytometry: Non-senescent and senescent cells were seeded into wells of 24- or 48-well at about 70% of confluence. […] Both quiescent non-senescent cells and permanently growth arrested senescent cells were treated with vehicle (0.1% DMSO or PBS) or increasing concentrations of the compounds listed in Table 1 for various durations. […] After incubated with propidium iodide (PI 100 ng/ml) in PBS at room temperature for 1 min, cells were centrifuged at 1200 rpm for 6 min and then resuspended in PBS with 2% of FBS for analysis by a BD LSR II flow cytometer (BD Biosciences, San Jose, Calif., USA). Viable cells (PI^− cells) were numerated by flow cytometry at a constant flow rate and calculated as a percentage of control cells treated with vehicle using the formula: percentage of control=(Ndrug/NC)×100, where Ndrug and NC represent the absolute number of PI^− viable cells of drug-treated and vehicle-treated cells, respectively.
MTT (3-[4,5-dimethylthiazol-2-yl]-2,5 diphenyl tetrazolium bromide) assay: Cells were harvested, washed and resuspended in CM and added to wells of 24- or 48-well plates as described above. […] After 4 h at 37° C., the formazan was solubilized by lysing the cells with 300 μl of DMSO. Absorbance of formazan was measured at 595 nm using a Microplate Reader (BioTek, Winooski, Vt., USA). Cell viability was calculated in the method as previously described^4.
Trypan blue exclusion assay: Cells were harvested, washed and resuspended in CM and added to wells of a 6-well plate as described above. […] Living cells stained negative for trypan blue and were counted under light microscopy.
Briefly, Probit (set as y) was determined by looking up their correspondence to the % responded in Finney's table. The log of the compound concentrations was used as x. By fitting a line of regression, we produce the formula y=ax+b.

[2] = test system: mouse embryonic fibroblasts (MEF); test: Cell viability, IR-SC vs NC, mouse embryonic fibroblasts; format: cell-based; conditions: increasing concentrations, 72 h
Description: Human WI-38 fibroblasts (WI38 cells, #CCL-75™), human IMR-90 fibroblasts (IMR90 cells, #CCL-186™), human renal epithelial cells (REC cells, #PCS-400-012™) were obtained from ACTT (Manassas, Va., USA). Mouse embryonic fibroblasts (MEF) were isolated from mouse embryos as described^1. All cells were cultured in a complete medium (CM) (Dulbecco's Modified Eagle Medium supplemented with 10% fetal bovine serum [FBS], 100 U/ml penicillin, and 100 μg/ml streptomycin [all from Atlanta Biologicals, Norcross, Ga., and USA]) in a humidified incubator at 37° C. and 5% CO2. Low passages of WI-38 cells (<25), IMR-90 (<25), REC cells (<25) and MEF (<3) were used as non-senescent controls or for induction of senescence to avoid replicative senescence. To induce replicative senescence, WI-38 cells were subcultivated until cell division ceased after about 38 passages or 60 population doublings (FIG. 5)^2. […]
Flow cytometry: Non-senescent and senescent cells were seeded into wells of 24- or 48-well at about 70% of confluence. […] Viable cells (PI^− cells) were numerated by flow cytometry at a constant flow rate and calculated as a percentage of control cells treated with vehicle using the formula: percentage of control=(Ndrug/NC)×100, where Ndrug and NC represent the absolute number of PI^− viable cells of drug-treated and vehicle-treated cells, respectively.

IR-induced WI-38 SCs = test: Apoptosis analysis (Annexin V/PI flow cytometry); format: cell-based, human; conditions: 1.25 μM ABT263, 24 h, with or without 20 μM Q-VD-OPh
Description: Cells were seeded into a 6-well plate at 4-6×10^5 cells/well. […] The cells were harvested 24 h after treatment and resuspended in 1× annexin V binding buffer (BD Biosciences) at 1×10^6 cells/ml. An aliquot (100 μl) of the cell suspension was incubated with 5 μl of Annexin V-FITC (BD Biosciences) or PI (1 mg/ml) for 15 min at room temperature in the dark. After addition of 400 μl of 1× binding buffer, 10,000 cells per sample were analyzed by a BD LSR H flow cytometer (BD Biosciences).

[3] = test system: senescent HSCs induced by TBI
Description: The femora and tibiae were harvested from mice immediately after they were euthanized. BM cells were flushed from the bones into HBSS containing 2% FCS using a 21-gauge needle and syringe. […] The labeled mature lymphoid and myeloid cells were depleted twice by incubation with goat anti-rat IgG paramagnetic beads (Dynal Inc, Lake Success, N.Y., USA) at a bead:cell ratio of approximately 4:1. Cells binding the paramagnetic beads were removed with a magnetic field. The negatively isolated Lin^− cells were washed twice with 2% FCS/HBSS and resuspended in complete medium (RPMI1640 medium supplemented with 10% FCS, 2 mM L-glutamine, 10 μM HEPES buffer, and 100 U/ml penicillin and streptomycin) at 1×10^6/ml. HSCs (CD150^+CD48^− LSK^+ cells) were sorted by a BD FACSAria II cell sorter (BD Biosciences, San Jose, Calif.) after Lin^− cells were preincubated with anti-CD16/32 antibody to block the Fcγ receptors and then stained with anti-Sca1-PE, c-Kit-APC-Cy7, CD150-APC and CD48-Pacific blue antibodies. Dead cells were excluded by gating out the cells that stained positive with PI.
Feeder cell stromal layers were prepared by seeding 10^3/well FBMD-1 stromal cells in each well of flat-bottom 96-well plates (Falcon, Lincoln Park, N.J.). One week later, BM-MNCs resuspended in CAFC medium (Iscove's MDM supplemented with 20% horse serum, 10^−5 M hydrocortisone, 10^−5 M 2-mercaptoethanol, 100 U/ml penicillin, and 100 μg/ml streptomycin) after various treatments described above were overlaid on these stromal layers in 6 dilutions at 3-fold intervals. Twenty wells were plated for each dilution to allow limiting dilution analysis of the precursor cells forming hematopoietic cell clones under the stromal layer. Cultures were fed weekly by changing one-half of the media. The frequencies of CAFC were determined on days 14 and 35. Wells were scored positive if at least one phase-dark hematopoietic clone (containing 5 or more cells) was seen. The frequency of CAFC was then calculated by using Poisson statistics as described previously^9, 10. […]

With `CC1(C)CCC(c2ccc(Cl)cc2)=C(CN2CCN(c3ccc(C(=O)NS(=O)(=O)c4ccc(N[C@H](CCN5CCOCC5)CSc5ccccc5)c(S(=O)(=O)C(F)(F)F)c4)cc3)CC2)C1` [ABT263, navitoclax] the CC50 ([1]; Homo sapiens) was 12.6 µM, the “LD50” value ([1]; Table 2, NC WI38 cells) was 12.60 µM and the CC50 [1] was 12.60 µM. For the same compound, the “viable cells by MTT assay and trypan blue exclusion test” value ([1]; non-senescent WI-38, increasing concentrations, 72 h) was “is not cytotoxic to non-senescent WI-38 cells”, the “viable cells, IR-SC vs NC” value [2] was “kills IR-induced senescent cells (IR-SC) but not non-senescent cells (NC)” and the apoptosis induction (IR-induced WI-38 SCs) was “selectively killed SCs by inducing apoptosis, which was abrogated by QVD”. For the same compound, the “HSC myeloid skewing, quiescence and persistent DNA damage” value ([3]; TBI mice, Ki67, γH2AX, BMT) was “attenuated IR-induced HSC myeloid skewing and disruption of HSC quiescence, and reduced HSCs with persistent DNA damage”, the “BM HSC and HPC numbers” value ([3]; after ABT263 treatment of CTL or TBI mice) was “did not quantitatively reduce BM HSCs or hematopoietic progenitor cells (HPCs)” and the “clonogenicity (CAFC) and long-term engraftment ability of HSCs” value ([3]; day-35 CAFC, competitive and serial BMT) was “significantly improved the clonogenicity and long-term engraftment ability of HSCs”.
